Tests used:
[1] = molecular target: T1, GAL4-PPAR γ chimeric nuclear receptor (human PPAR γ ligand binding domain) (Homo sapiens, UniProt P37231); experiment: PPAR γ transactivation assay by transient gene transfer (GAL4-PPAR γ chimeric receptor, luciferase reporter, HEK293EBNA cells); type: cell-based; conditions: concentration showing 50% of efficacy (maximum activity rate relative to pioglitazone = 100%), 24 hr
T1 construct: expressed in transfected cells; host or cells: HEK293EBNA cells, transient transfection with SuperFect
T1 sequence (P37231 174-475 isoform P37231-2): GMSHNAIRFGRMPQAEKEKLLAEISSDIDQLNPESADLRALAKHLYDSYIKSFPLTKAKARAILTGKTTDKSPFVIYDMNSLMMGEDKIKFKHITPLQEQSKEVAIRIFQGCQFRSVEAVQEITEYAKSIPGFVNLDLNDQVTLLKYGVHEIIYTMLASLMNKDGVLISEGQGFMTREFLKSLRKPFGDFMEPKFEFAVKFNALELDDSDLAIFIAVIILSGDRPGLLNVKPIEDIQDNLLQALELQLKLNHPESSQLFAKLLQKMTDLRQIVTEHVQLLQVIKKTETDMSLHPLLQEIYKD
Protocol: The agonist activity of the test compound to PPAR γ was determined by a transactivation assay method using a chimeric nuclear receptor of a DNA binding region of a yeast transcription factor GAL4 and a PPAR γ ligand binding region. Specifically, the PPAR γ agonist activity of the test compound was evaluated by the following method based on the method of Lehmann et al. (J Biol. Chem., 1995, vol. 270, page 12953).
HEK293EBNA cells cultured in Dulbecco's Modified Eagle medium (Invitrogen) containing 10 v/v % fetal bovine serum (Invitrogen) were used. 30 mL of the above-mentioned cells (density: 1×10^5 cells/mL) were inoculated in a […] (Iwaki Glass), and cultured overnight. Using SuperFect Transfection Reagent (QIAGEN), a plasmid expressing a GAL4-PPAR γ chimeric nuclear receptor fusing 174-475 amino acids, which are human PPAR γ ligand binding domain, and 1-147 amino acids, which are GAL4 DNA binding domain, and a reporter plasmid expressing a GAL4 responsive luciferase were transiently introduced into the cells at a proportion of 4:1. After 5 hr from transfection, the cells were detached from the culture dish, and the detached cells (density: 2×10^4 cells/mL) were inoculated by 100 μL in each well of a 96 well white plate (SUMITOMO BAKELITE), and cultured overnight. The medium was removed, the test compound diluted in various concentrations with serum-free Dulbecco's Modified Eagle medium was added by 100 μL, and the mixture was reacted under a 5% carbon dioxide gas stream (5% CO2) at 37° C. for 24 hr. On the other hand, as a positive control, 10 μmol/L of pioglitazone (100 μL) was added, and the mixture was reacted under a 5% carbon dioxide gas stream (5% CO2) at 37° C. for 24 hr. As a substrate of luciferase, 100 μL of Steady-Glo (Promega) was added to each well and the mixture was thoroughly stirred. Immediately thereafter, the chemical luminescence due to luciferase was measured using TopCount NTX (Packard).
The agonist activity (activity rate (%)) of the test compound to PPAR γ was calculated according to the following formula, as a relative activity when the agonist activity on addition of pioglitazone ([…]) was 100%.

[2] = Metabolic stability evaluation in human liver microsome; type: in vitro ADME; conditions: liver microsomes, pH 7.4; human liver microsome 0.2 mg/mL protein, test compound 1 μmol/L, β-NADPH, 37° C., 30 min; average of two samples; read-out: hCLint (converted)
Protocol: Human liver microsome (pool of 50 donors) was purchased from XenoTech. A reaction mixture containing phosphate buffer (100 mmol/L, pH 7.4), ethylenediamine tetraacetic acid (0.1 mmol/L), magnesium chloride (6 mmol/L), human liver microsome (0.2 mg/mL protein) and test compound (1 μmol/L) was prepared. The reaction mixture was preincubated at 37° C. for 5 min, β-NADPH (1 mmol/L) was added and the mixture was incubated at 37° C. for 30 min. The protein was removed with acetonitrile from the sample after the reaction and the sample was measured by LC-MS/MS. The ratio of the organic solvent in the reaction mixture was set to about 0.5%, and the reaction was performed in 2 samples.
The elimination rate constant (ke) was calculated from the linear regression of the logarithm plot of the residual ratio of the test compound and at 30 min after the reaction, and the liver inherent clearance (Cint) was calculated by the following formula.
[formula] ke: elimination rate constant (1/h) a: concentration (mg/mL) of liver microsome in the reaction mixture b: liver microsome amount per liver unit weight (32.3 mg/g liver) c: liver weight per unit body weight (25.7 g liver/kg body weight) Each test compound was tested in two samples, and the average thereof was calculated.

| SMILES | EC50 [1] | CLint scaled at 1 μmol/L [2] |
| --- | --- | --- |
| C/C(=C1/c2ccc(Cc3c(C(C)C)nc4ccccn34)cc2COc2cc(F)ccc21)c1noc(=O)[nH]1 [Compound 8c, (E)-3-(1-{3-fluoro-8-[(2-isopropylimidazo[1,2-a]pyridin-3-yl)methyl]dibenzo[b,e]oxepin-11(6H)-ylidene}ethyl)-1,2,4-oxadiazol-5(4H)-one] | 33.3 nM | 50 mL/min/kg |
| C/C(=C1/c2ccc(Cn3c(C4CCC4)nc4c(Cl)nccc43)cc2COc2cc(F)ccc21)c1noc(=O)[nH]1 [Compound 3b, (E)-3-(1-{8-[(4-chloro-2-cyclobutyl-1H-imidazo[4,5-c]pyridin-1-yl)methyl]-3-fluorodibenzo[b,e]oxepin-11(6H)-ylidene}ethyl)-1,2,4-oxadiazol-5(4H)-one] | 22.8 nM | 9.5 mL/min/kg |
| C/C(=C1/c2ccc(Cc3c(C4CC4)nc4cc(F)ccn34)cc2COc2cc(F)ccc21)c1noc(=O)[nH]1 [Compound 10c, (E)-3-(1-{8-[(2-cyclopropyl-7-fluoroimidazo[1,2-a]pyridin-3-yl)methyl]-3-fluorodibenzo[b,e]oxepin-11(6H)-ylidene}ethyl)-1,2,4-oxadiazol-5(4H)-one] | 12.7 nM | 65 mL/min/kg |
| C/C(=C1/c2ccc(Cc3c(C4CCOC4)nc4cc(F)ccn34)cc2COc2cc(F)ccc21)c1noc(=O)[nH]1 (stereo not drawn) [Compound 14j, (E)-3-(1-{8-[(7-fluoro-2-(tetrahydrofuran-3-yl)imidazo[1,2-a]pyridin-3-yl)methyl]-3-fluorodibenzo[b,e]oxepin-11(6H)-ylidene}ethyl)-1,2,4-oxadiazol-5(4H)-one] | 83 nM | 11.3 mL/min/kg |
| O=c1[nH]c(/C(=C2\c3ccc(Cc4c(C5CC5)nc5ccccn45)cc3COc3cc(F)ccc32)C2CC2)no1 [Compound 12c] | 78.2 nM | 65 mL/min/kg |
| C/C(=C1/c2ccc(Cc3c(C#N)nc4cc(F)ccn34)cc2COc2cc(F)ccc21)c1noc(=O)[nH]1 [Compound 14i, (E)-3-(1-{8-[(2-cyano-7-fluoroimidazo[1,2-a]pyridin-3-yl)methyl]-3-fluorodibenzo[b,e]oxepin-11(6H)-ylidene}ethyl)-1,2,4-oxadiazol-5(4H)-one] | 239 nM | 127 mL/min/kg |
| C/C(=C1/c2ccc(Cc3c(C4CC4)nc4c(F)cccn34)cc2COc2cc(F)ccc21)c1noc(=O)[nH]1 [Compound 9i, (E)-3-(1-{8-[(2-cyclopropyl-8-fluoroimidazo[1,2-a]pyridin-3-yl)methyl]-3-fluorodibenzo[b,e]oxepin-11(6H)-ylidene}ethyl)-1,2,4-oxadiazol-5(4H)-one] | 13.9 nM | 71.7 mL/min/kg |
| CCCc1nc2ccccc2n1Cc1ccc2c(c1)COc1c(ccc(F)c1F)/C2=C(\C)c1noc(=O)[nH]1 [Compound 7a, (E)-3-(1-{3,4-difluoro-8-[(2-propyl-1H-benzo[d]imidazol-1-yl)methyl]dibenzo[b,e]oxepin-11(6H)-ylidene}ethyl)-1,2,4-oxadiazol-5(4H)-one] | 27.7 nM | 48.3 mL/min/kg |
| CC/C(=C1/c2ccc(Cn3c(COC)nc4ccccc43)cc2COc2cc(F)ccc21)c1noc(=O)[nH]1 [Compound 4l, (E)-3-[1-(3-fluoro-8-{[2-(methoxymethyl)-1H-benzo[d]imidazol-1-yl]methyl}dibenzo[b,e]oxepin-11(6H)-ylidene)propyl]-1,2,4-oxadiazol-5(4H)-one] | 38 nM | 36.7 mL/min/kg |

Further lines, results first:

| EC50 [1] | CLint scaled at 1 μmol/L [2] | SMILES |
| --- | --- | --- |
| 15.9 nM | 30 mL/min/kg | C/C(=C1/c2ccc(Cc3c(C4CC4)nc4c(C)nccn34)cc2COc2cc(F)ccc21)c1noc(=O)[nH]1 [Compound 14a, (E)-3-(1-{8-[(2-cyclopropyl-8-methylimidazo[1,2-a]pyrazin-3-yl)methyl]-3-fluorodibenzo[b,e]oxepin-11(6H)-ylidene}ethyl)-1,2,4-oxadiazol-5(4H)-one] |
| 209 nM | 65 mL/min/kg | CCCc1nc(C)nc(N2CCC2)c1Cc1ccc2c(c1)COc1cc(F)ccc1/C2=C(\C)c1noc(=O)[nH]1 [Compound 13g, (E)-3-[1-(8-{[4-(azetidin-1-yl)-2-methyl-6-propylpyrimidin-5-yl]methyl}-3-fluorodibenzo[b,e]oxepin-11(6H)-ylidene)ethyl]-1,2,4-oxadiazol-5(4H)-one] |
| 19 nM | 90 mL/min/kg | C/C(=C1/c2ccc(Cc3c(C4CC4)nc4nc(C(F)(F)F)ccn34)cc2COc2cc(F)ccc21)c1noc(=O)[nH]1 [Compound 11h, (E)-3-[1-(8-{[2-cyclopropyl-7-(trifluoromethyl)imidazo[1,2-a]pyrimidin-3-yl]methyl}-3-fluorodibenzo[b,e]oxepin-11(6H)-ylidene)ethyl]-1,2,4-oxadiazol-5(4H)-one] |
| 7.2 nM | 28.3 mL/min/kg | C/C(=C1/c2ccc(Cn3c(C4CC(F)(F)C4)nc4ccccc43)cc2COc2cc(F)ccc21)c1noc(=O)[nH]1 [Compound 1j, (E)-3-[1-(8-{[2-(3,3-difluorocyclobutyl)-1H-benzo[d]imidazol-1-yl]methyl}-3-fluorodibenzo[b,e]oxepin-11(6H)-ylidene)ethyl]-1,2,4-oxadiazol-5(4H)-one] |
| 9 nM | 23.3 mL/min/kg | C/C(=C1/c2ccc(Cn3c(C4CC4)nc4ccccc43)cc2COc2cc(F)ccc21)c1noc(=O)[nH]1 [Compound 1d, (E)-3-(1-{8-[(2-cyclopropyl-1H-benzo[d]imidazol-1-yl)methyl]-3-fluorodibenzo[b,e]oxepin-11(6H)-ylidene}ethyl)-1,2,4-oxadiazol-5(4H)-one] |
| 11.9 nM | 25 mL/min/kg | [2H]C([2H])([2H])Oc1cccn2c(Cc3ccc4c(c3)COc3cc(F)ccc3/C4=C(\C)c3noc(=O)[nH]3)c(C3CC3)nc12 [Compound 9h, (E)-3-[1-(8-{[2-cyclopropyl-8-(methoxy-d3)-imidazo[1,2-a]pyridin-3-yl]methyl}-3-fluorodibenzo[b,e]oxepin-11(6H)-ylidene)ethyl]-1,2,4-oxadiazol-5(4H)-one] |
| 7.4 nM | 61.7 mL/min/kg | CCCc1nc2c(C)nccn2c1Cc1ccc2c(c1)COc1cc(F)ccc1/C2=C(\C)c1noc(=O)[nH]1 [Compound 14d, (E)-3-(1-{3-fluoro-8-[(8-methyl-2-propylimidazo[1,2-a]pyrazin-3-yl)methyl]dibenzo[b,e]oxepin-11(6H)-ylidene}ethyl)-1,2,4-oxadiazol-5(4H)-one] |
| 39.9 nM | 88.3 mL/min/kg | C/C(=C1/c2ccc(Cn3c(C(C)C)nc(Cl)c3Cl)cc2COc2cc(F)ccc21)c1noc(=O)[nH]1 [Compound 13c, (E)-3-(1-{8-[(4,5-dichloro-2-isopropyl-1H-imidazol-1-yl)methyl]-3-fluorodibenzo[b,e]oxepin-11(6H)-ylidene}ethyl)-1,2,4-oxadiazol-5(4H)-one] |
| 54.5 nM | 18.3 mL/min/kg | O=c1[nH]c(/C(F)=C2\c3ccc(Cc4c(C5CC5)nc5c(Cl)cccn45)cc3COc3cc(F)ccc32)no1 [Compound 8n, (Z)-3-({8-[(8-chloro-2-cyclopropylimidazo[1,2-a]pyridin-3-yl)methyl]-3-fluorodibenzo[b,e]oxepin-11(6H)-ylidene}fluoromethyl)-1,2,4-oxadiazol-5(4H)-one] |

— patent publication US8969345B2, “Dibenzooxepin derivative” (Kyowa Hakko Kirin Co., Ltd., priority 2011, dated 2015)
